Test results published in paper PMC10482301 (PLOS Neglected Tropical Diseases, 2023).

Columns and labels:
[1] = biological target: T1, UDP-glucose 6-dehydrogenase (HsUGDH) (Homo sapiens, UniProt O60701); assay: spectrophotometric assay, helper enzyme inhibited (no numbers shown); format: biochemical
T1 construct: gene UGDH; recombinant HsUGDH with N-terminal Strep-tag and four-residue linker
T1 sequence (O60701 1-494): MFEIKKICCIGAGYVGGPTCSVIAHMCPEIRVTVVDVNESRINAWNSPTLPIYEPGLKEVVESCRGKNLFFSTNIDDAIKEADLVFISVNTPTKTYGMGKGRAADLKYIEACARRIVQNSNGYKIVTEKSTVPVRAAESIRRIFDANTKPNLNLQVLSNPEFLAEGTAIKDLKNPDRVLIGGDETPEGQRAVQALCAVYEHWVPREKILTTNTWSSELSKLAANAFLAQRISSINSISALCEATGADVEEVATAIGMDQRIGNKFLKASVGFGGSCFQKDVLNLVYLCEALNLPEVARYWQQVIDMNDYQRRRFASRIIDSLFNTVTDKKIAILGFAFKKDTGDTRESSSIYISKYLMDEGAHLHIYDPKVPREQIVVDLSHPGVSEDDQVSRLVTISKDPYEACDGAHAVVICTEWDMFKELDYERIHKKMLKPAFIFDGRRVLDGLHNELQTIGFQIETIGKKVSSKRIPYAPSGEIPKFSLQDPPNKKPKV

[2] = biological target: T2, UDP-glucose 4-epimerase (EhGalE) (Entamoeba histolytica, UniProt C4M746); assay: RP-HPLC of UDP-Gal to UDP-Glc conversion by purified recombinant enzyme after […] min preincubation; format: biochemical
T2 construct: gene EHI_192050; full-length recombinant EhGalE (XP_650346) with N-terminal Strep-tag and Gly-Gly-Gly-Ser linker
T2 sequence (C4M746 1-341): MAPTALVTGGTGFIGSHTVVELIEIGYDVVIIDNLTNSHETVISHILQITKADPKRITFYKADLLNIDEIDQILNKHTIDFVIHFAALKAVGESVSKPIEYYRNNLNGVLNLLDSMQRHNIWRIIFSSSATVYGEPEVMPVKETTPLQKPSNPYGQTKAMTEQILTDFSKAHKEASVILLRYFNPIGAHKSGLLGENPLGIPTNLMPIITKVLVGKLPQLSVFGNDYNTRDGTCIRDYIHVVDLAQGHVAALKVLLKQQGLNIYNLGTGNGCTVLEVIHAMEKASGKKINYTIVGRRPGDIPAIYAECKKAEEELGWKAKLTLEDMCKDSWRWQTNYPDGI

Compound | spectrophotometric assay, helper enzyme inhibited (no numbers shown) [1] | IC50 [2] [nM]
CC/C(=C(/CC)c1ccc(O)cc1)c1ccc(O)cc1 [diethylstilbestrol] | the helper enzyme UGDH was inhibited by all three compounds | –
O=c1c2ccccc2[se]n1-c1ccccc1 [ebselen] | the helper enzyme UGDH was inhibited by all three compounds | 2190
C=C(CC)C(=O)c1ccc(OCC(=O)O)c(Cl)c1Cl [ethacrynic acid] | the helper enzyme UGDH was inhibited by all three compounds | –
